# Source: ChEMBL document CHEMBL1131036, “Structure-based design, synthesis, and biological evaluation of irreversible human rhinovirus 3C protease inhibitors. 1. Michael acceptor structure-activity studies” (J Med Chem, 1998)
# Activity calls are given as the source filed them. No cut-off for these calls is given here.
# Assays:
# [1] = system: HeLa; assay: Formazan production in HRV-14 virus infected cells; type: functional, cell-based; conditions: Homo sapiens
# [2] = system: HeLa; assay: Concentration of compound that decreased the percentage of formazan production in treated HRV-14 virus infected cells to that produced in uninfected cells; type: functional; conditions: Homo sapiens
# [3] = system: Human rhinovirus sp.; assay: Inhibitory activity of compound towards partial or complete loss of 3C protease (HRV-14) activity in presence of 5 mM dithiothreitol (DTT); inhibition observed; type: functional, organism-based
# [4] = molecular target: T1, Human rhinovirus A protease (Human rhinovirus sp.) (UniProt Q4U254); assay: Catalytic rate constant (Kobs/[I]) evaluated against human rhinovirus (HRV) serotype 14 3C Protease (3CP); conditions: Human rhinovirus B (HRV-14)
# T1 sequence (whole entry): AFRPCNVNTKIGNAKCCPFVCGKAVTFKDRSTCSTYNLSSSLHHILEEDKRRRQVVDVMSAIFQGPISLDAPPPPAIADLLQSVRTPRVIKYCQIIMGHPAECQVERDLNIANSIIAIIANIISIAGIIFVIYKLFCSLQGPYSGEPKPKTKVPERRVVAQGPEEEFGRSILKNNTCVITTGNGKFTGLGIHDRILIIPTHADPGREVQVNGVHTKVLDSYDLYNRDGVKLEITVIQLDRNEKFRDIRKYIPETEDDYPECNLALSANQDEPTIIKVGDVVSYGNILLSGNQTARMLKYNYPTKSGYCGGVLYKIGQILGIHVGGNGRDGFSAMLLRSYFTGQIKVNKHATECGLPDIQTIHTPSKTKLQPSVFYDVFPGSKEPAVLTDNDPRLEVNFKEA
# [5] = Half-life in rat plasma; type: ADME, organism-based
# [6] = system: Human rhinovirus sp.; assay: Inhibitory activity of compound towards partial or complete loss of 3C protease (HRV-14) activity in presence of 5 mM dithiothreitol (DTT); No inhibition; type: functional, organism-based
# [7] = molecular target: T1, Human rhinovirus A protease (Human rhinovirus sp.); assay: Catalytic rate constant (Kobs/[I]) was evaluated against human rhinovirus (HRV) serotype 2 3C Protease (3CP)
# [8] = molecular target: T1, Human rhinovirus A protease (Human rhinovirus sp.); assay: Catalytic rate constant (Kobs/[I]) was evaluated against human rhinovirus (HRV) serotype 16 3C Protease (3CP)
# [9] = system: HeLa; assay: Concentration of compound that increased the percentage of formazan production in HRV-16 virus infected cells to that of untreated control cells; type: functional, cell-based; conditions: Homo sapiens
# [10] = system: HeLa; assay: Concentration of compound that increased the percentage of formazan production in HRV-2 virus infected cells to that of untreated control cells; type: functional, cell-based; conditions: Homo sapiens
SMILES,EC50 [1],CC50 [2],inhibition [3],K obs / 1 [4],half-life [5],inhibition [6],K obs / 1 [7],K obs / 1 [8],EC50 [9],EC50 [10]
CC(C)C[C@H](NC(=O)OCc1ccccc1)C(=O)N[C@@H](Cc1ccccc1)C(=O)N[C@H](/C=C/[N+](=O)[O-])CCC(N)=O,> 100 µM,100 µM,Yes,500000 M⁻¹ s⁻¹,,,,,,
CC(C)C[C@H](NC(=O)OCc1ccccc1)C(=O)N[C@@H](Cc1ccccc1)C(=O)N[C@H](/C=C1\CCOC1=O)CCC(N)=O,5.2 µM,> 320 µM,,10900 M⁻¹ s⁻¹,> 240 min,,,,,
CC(C)C[C@H](NC(=O)OCc1ccccc1)C(=O)N[C@@H](Cc1ccccc1)C(=O)N[C@H](/C=C/C(=O)N1CCc2ccc([N+](=O)[O-])cc21)CCC(N)=O,> 320 µM,> 320 µM,,29000 M⁻¹ s⁻¹,,inactive,,,,
CC(C)C[C@H](NC(=O)OCc1ccccc1)C(=O)N[C@@H](Cc1ccccc1)C(=O)N[C@H](/C=C/C(=O)N1CCc2ccc(S(=O)(=O)N(C)C)cc21)CCC(N)=O,> 100 µM,,,28300 M⁻¹ s⁻¹,,inactive,,,,
CC(C)C[C@H](NC(=O)OCc1ccccc1)C(=O)N[C@@H](Cc1ccccc1)C(=O)N[C@H](/C=C/C(=O)N1CCc2ccccc21)CCC(N)=O,16 µM,> 320 µM,,6500 M⁻¹ s⁻¹,> 80 min,,,,,
CC(=O)/C=C/[C@H](CCC(N)=O)NC(=O)[C@H](Cc1ccccc1)NC(=O)[C@H](CC(C)C)NC(=O)OCc1ccccc1,2 µM,60 µM,,54000 M⁻¹ s⁻¹,,,2700 M⁻¹ s⁻¹,8900 M⁻¹ s⁻¹,,
CC(C)C[C@H](NC(=O)OCc1ccccc1)C(=O)N[C@@H](Cc1ccccc1)C(=O)N[C@H](/C=C/C(=O)N1CCN(C)C1=O)CCC(N)=O,5 µM,> 320 µM,Yes,312000 M⁻¹ s⁻¹,,,,,,
CC(C)C[C@H](NC(=O)OCc1ccccc1)C(=O)N[C@@H](Cc1ccccc1)C(=O)N[C@H](/C=C/C(=O)N1CCc2cc([N+](=O)[O-])ccc21)CCC(N)=O,17 µM,> 320 µM,,12000 M⁻¹ s⁻¹,,inactive,,,,
CON(C)C(=O)/C=C/[C@H](CCC(N)=O)NC(=O)[C@H](Cc1ccccc1)NC(=O)[C@H](CC(C)C)NC(=O)OCc1ccccc1,4 µM,> 100 µM,,5900 M⁻¹ s⁻¹,12 min,,,,,
CC(C)C[C@H](NC(=O)OCc1ccccc1)C(=O)N[C@@H](Cc1ccccc1)C(=O)N[C@H](/C=C/C(=O)N1CCOC1=O)CCC(N)=O,1.6 µM,> 100 µM,Yes,600000 M⁻¹ s⁻¹,,,,,,
CC(C)C[C@H](NC(=O)OCc1ccccc1)C(=O)N[C@@H](Cc1ccccc1)C(=O)N[C@H](/C=C/C(=O)OC1CCCCC1)CCC(N)=O,3.6 µM,> 320 µM,,3700 M⁻¹ s⁻¹,4 min,,,,,
CC(=O)N1CC/C(=C\[C@H](CCC(N)=O)NC(=O)[C@H](Cc2ccccc2)NC(=O)[C@H](CC(C)C)NC(=O)OCc2ccccc2)C1=O,0.71 µM,> 100 µM,,156000 M⁻¹ s⁻¹,,,13000 M⁻¹ s⁻¹,39000 M⁻¹ s⁻¹,,
COc1ccc2c(c1)CCN2C(=O)/C=C/[C@H](CCC(N)=O)NC(=O)[C@H](Cc1ccccc1)NC(=O)[C@H](CC(C)C)NC(=O)OCc1ccccc1,> 320 µM,> 320 µM,,3400 M⁻¹ s⁻¹,,,,,,
CCOC(=O)/C(F)=C/[C@H](CCC(N)=O)NC(=O)[C@H](Cc1ccccc1)NC(=O)[C@H](CC(C)C)NC(=O)OCc1ccccc1,> 320 µM,> 320 µM,,60 M⁻¹ s⁻¹,,,,,,
CCOC(=O)/C(C)=C/[C@H](CCC(N)=O)NC(=O)[C@H](Cc1ccccc1)NC(=O)[C@H](CC(C)C)NC(=O)OCc1ccccc1,3 µM,> 320 µM,,7300 M⁻¹ s⁻¹,20 min,,,,,
CC(C)C[C@H](NC(=O)OCc1ccccc1)C(=O)N[C@@H](Cc1ccccc1)C(=O)N[C@H](/C=C/C(=O)c1ccco1)CCC(N)=O,2.4 µM,19 µM,Yes,460000 M⁻¹ s⁻¹,,,,,,
CC(C)C[C@H](NC(=O)OCc1ccccc1)C(=O)N[C@@H](Cc1ccccc1)C(=O)N[C@H](/C=C/C(=O)OCC(C)(C)C)CCC(N)=O,0.5 µM,> 100 µM,,9800 M⁻¹ s⁻¹,,,,,,
CC(C)C[C@H](NC(=O)OCc1ccccc1)C(=O)N[C@@H](Cc1ccccc1)C(=O)N[C@H](/C=C/C(=O)N(C)c1ccccc1)CCC(N)=O,158 µM,> 320 µM,,580 M⁻¹ s⁻¹,,,,,,
CC(C)C[C@H](NC(=O)OCc1ccccc1)C(=O)N[C@@H](Cc1ccccc1)C(=O)N[C@H](/C=C/C(=O)N1CCc2ccc(S(=O)(=O)N3CCCC3)cc21)CCC(N)=O,> 320 µM,> 320 µM,,22700 M⁻¹ s⁻¹,,,,,,
CC(C)C[C@H](NC(=O)OCc1ccccc1)C(=O)N[C@@H](Cc1ccccc1)C(=O)N[C@H](/C=C/C(=O)N1CCCC1=O)CCC(N)=O,0.89 µM,> 320 µM,Yes,126000 M⁻¹ s⁻¹,,,,,,
CC(C)C[C@H](NC(=O)OCc1ccccc1)C(=O)N[C@@H](Cc1ccccc1)C(=O)N[C@H](/C=C/C(=O)N1CCCc2ccccc21)CCC(N)=O,126 µM,> 320 µM,,1000 M⁻¹ s⁻¹,,,,,,
CC(C)C[C@H](NC(=O)OCc1ccccc1)C(=O)N[C@@H](Cc1ccccc1)C(=O)N[C@H](/C=C/C(=O)N1CCc2cc(F)ccc21)CCC(N)=O,11 µM,> 320 µM,,5400 M⁻¹ s⁻¹,,,,,,
CCOC(=O)/C=C/[C@H](CCC(N)=O)NC(=O)[C@H](Cc1ccccc1)NC(=O)[C@H](CC(C)C)NC(=O)OCc1ccccc1,0.54 µM,> 320 µM,,,10 min,,,,2.3 µM,1.6 µM
CC(C)C[C@H](NC(=O)OCc1ccccc1)C(=O)N[C@@H](Cc1ccccc1)C(=O)N[C@H](/C=C/C(=O)OC1CCCC1)CCC(N)=O,0.56 µM,> 100 µM,,14600 M⁻¹ s⁻¹,,,,,,
CC(C)C[C@H](NC(=O)OCc1ccccc1)C(=O)N[C@@H](Cc1ccccc1)C(=O)N[C@H](/C=C/C(=O)N1CCc2ccc(S(C)(=O)=O)cc21)CCC(N)=O,> 320 µM,> 320 µM,,12900 M⁻¹ s⁻¹,,,,,,
CC(C)C[C@H](NC(=O)OCc1ccccc1)C(=O)N[C@@H](Cc1ccccc1)C(=O)N[C@H](/C=C/C(=O)N1CCCC1)CCC(N)=O,22 µM,> 100 µM,,2100 M⁻¹ s⁻¹,,,,,,
CC(C)C[C@H](NC(=O)OCc1ccccc1)C(=O)N[C@@H](Cc1ccccc1)C(=O)N[C@H](/C=C/c1cocn1)CCC(N)=O,> 100 µM,> 100 µM,,0 M⁻¹ s⁻¹,,,,,,
